Measured values reported in patent US20220380829A1, “Method of Diagonosizing Pathogens and their Antimicrobial Susceptibility” (HANGZHOU DIAN MEDICAL LABORATORY CO., LTD., priority 2019, published 2022).

Tested on: Candida tropicalis
Assay: Broth microdilution (M27-A3, M27-S4), gold standard culture-based AST
Type: cell-based

## OC(Cn1cncn1)(Cn1cncn1)c1ccc(F)cc1F [FLU]
blind-1
  Resistance profiles by broth microdilution (the gold standard): R
blind-2
  Resistance profiles by broth microdilution (the gold standard): S
blind-3
  Resistance profiles by broth microdilution (the gold standard): R
blind-4
  Resistance profiles by broth microdilution (the gold standard): R
blind-5
  Resistance profiles by broth microdilution (the gold standard): S
blind-6
  Resistance profiles by broth microdilution (the gold standard): S
